Here are results for 2 compounds from publication PMC10755728, “Inhibitors of the Elastase LasB for the Treatment of Pseudomonas aeruginosa Lung Infections” (ACS Central Science, 2023).

Data set [1] can be described thus: Metabolic stability in human liver S9 fraction. Type of data set: in vitro ADME.
For another data set, the target named is T1, HDAC-3 (Homo sapiens, UniProt O15379).
T1 construct: purchased Sigma-Aldrich (Saint Louis, MO)
The data set is described as follows: HDAC-3 inhibitor screening kit. The class given is biochemical.

Another data set in a line: Calu-3 permeability. Type of data set: in vitro ADME. Particulars: human.
In a further data set the test system is HEK293. Particulars: human, 48 h, 100 µM.
The nature of another data set: Plasma stability, mouse. Type of data set: in vitro ADME. Particulars: mouse plasma; read-out: Plasma T1/2 Mouse.
In the next data set the target is T2, MMP-2 (Homo sapiens, UniProt P08253).
T2 construct: purchased AnaSpec (Fremont, CA, USA)
T2 sequence (P08253 110-660): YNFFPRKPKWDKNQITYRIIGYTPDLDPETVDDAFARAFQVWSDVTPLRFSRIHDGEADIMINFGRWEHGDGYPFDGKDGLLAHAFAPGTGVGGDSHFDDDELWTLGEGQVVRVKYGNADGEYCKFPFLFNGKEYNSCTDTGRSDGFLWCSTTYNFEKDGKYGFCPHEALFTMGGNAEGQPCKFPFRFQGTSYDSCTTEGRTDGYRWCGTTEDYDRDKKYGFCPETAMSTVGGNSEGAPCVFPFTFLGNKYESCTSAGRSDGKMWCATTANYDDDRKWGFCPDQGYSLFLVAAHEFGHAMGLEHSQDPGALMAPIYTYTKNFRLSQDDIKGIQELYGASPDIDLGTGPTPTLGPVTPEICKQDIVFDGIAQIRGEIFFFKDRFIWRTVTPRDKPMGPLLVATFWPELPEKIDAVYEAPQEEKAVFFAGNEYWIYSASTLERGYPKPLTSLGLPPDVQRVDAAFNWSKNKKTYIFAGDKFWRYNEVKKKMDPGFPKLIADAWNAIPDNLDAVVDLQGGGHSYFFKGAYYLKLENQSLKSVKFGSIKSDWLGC
Kind of data set: MMP-2 inhibition assay. The class given is biochemical. The note with it: 100 μM; read-out: % inhibition MMP-2.

The next data set concerns the target T3, HDAC-8 (Homo sapiens, UniProt Q9BY41).
T3 construct: purchased Sigma-Aldrich (Saint Louis, MO)
T3 sequence (Q9BY41 1-377): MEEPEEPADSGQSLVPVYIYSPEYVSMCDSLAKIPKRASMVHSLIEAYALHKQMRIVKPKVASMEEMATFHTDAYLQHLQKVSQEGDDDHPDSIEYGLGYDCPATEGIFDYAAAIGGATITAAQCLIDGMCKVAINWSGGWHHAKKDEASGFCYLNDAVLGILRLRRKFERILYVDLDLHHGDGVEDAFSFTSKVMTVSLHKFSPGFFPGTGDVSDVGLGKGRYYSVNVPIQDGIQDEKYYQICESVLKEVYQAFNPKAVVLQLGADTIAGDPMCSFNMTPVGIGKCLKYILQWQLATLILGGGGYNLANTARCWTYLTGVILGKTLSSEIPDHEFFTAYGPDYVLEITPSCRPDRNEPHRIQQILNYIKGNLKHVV
The data set is described as follows: HDAC-8 inhibitor screening kit. The class given is biochemical.

For data set [2] the following is noted: mouse, in vivo.
Data set [3] concerns the target T4, LasB (Pseudomonas aeruginosa, UniProt Q02RJ6).
T4 construct: made in house
Kind of data set: biochemical. The class given is biochemical.

A further data set deals with T5, MMP-1 (Homo sapiens, UniProt P03956).
T5 construct: purchased AnaSpec (Fremont, CA, USA)
T5 sequence (P03956 100-469): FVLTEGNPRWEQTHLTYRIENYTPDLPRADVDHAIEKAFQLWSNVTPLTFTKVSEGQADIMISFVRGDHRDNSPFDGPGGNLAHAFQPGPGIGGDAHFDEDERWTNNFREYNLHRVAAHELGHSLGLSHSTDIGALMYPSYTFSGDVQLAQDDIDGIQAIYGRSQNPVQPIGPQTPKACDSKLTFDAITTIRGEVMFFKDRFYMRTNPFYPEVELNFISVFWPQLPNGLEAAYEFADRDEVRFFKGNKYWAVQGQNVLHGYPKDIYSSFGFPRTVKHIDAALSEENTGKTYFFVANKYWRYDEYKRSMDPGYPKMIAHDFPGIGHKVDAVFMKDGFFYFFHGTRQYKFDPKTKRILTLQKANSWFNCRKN
Kind of data set: MMP-1 inhibition assay. The class given is biochemical. Particulars: 100 μM; read-out: % inhibition MMP-1.

The nature of data set [4]: Metabolic stability in mouse liver S9 fraction. The class given is in vitro ADME.
Another data set deals with T6, MMP-3 (Homo sapiens, UniProt P08254).
T6 construct: purchased AnaSpec (Fremont, CA, USA)
T6 sequence (P08254 100-477): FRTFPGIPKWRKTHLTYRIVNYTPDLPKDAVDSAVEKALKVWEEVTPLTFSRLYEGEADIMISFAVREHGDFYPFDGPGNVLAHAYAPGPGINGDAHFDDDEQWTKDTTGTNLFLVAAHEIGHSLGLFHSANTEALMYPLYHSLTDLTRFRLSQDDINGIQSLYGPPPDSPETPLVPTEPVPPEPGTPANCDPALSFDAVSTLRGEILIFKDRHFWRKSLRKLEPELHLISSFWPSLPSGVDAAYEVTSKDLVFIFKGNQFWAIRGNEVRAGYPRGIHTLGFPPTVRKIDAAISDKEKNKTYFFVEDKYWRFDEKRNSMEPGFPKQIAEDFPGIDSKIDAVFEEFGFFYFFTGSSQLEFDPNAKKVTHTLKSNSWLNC
Kind of data set: MMP-3 inhibition assay. Particulars: 100 μM; read-out: % inhibition MMP-3. Type of data set: biochemical.

The nature of data set [5]: Lipophilicity determination (LogD7.4, HPLC-MS). Type of data set: physicochemical.
Protocol: Lipophilicity determination. LogD7.4 was analyzed using an HPLC−MS based method.50 The retention time of 12 compounds with known LogD7.4 was determined and plotted toward their LogD7.4. Linear regression was used to determine the LogD7.4 of unknown compounds. Analysis was performed using a Dionex Ultimate 3000 HPLC system coupled to a TSQ Quantum Access MAX (Thermo Fisher, Dreieich, Germany) with the following conditions: EC150/2 NUCLEODUR C18 Pyramid column, 5 μM (Macherey Nagel, Düren, Germany); eluent A: 50 mM NH4OAc pH 7.4, eluent B: acetonitrile, and flow: 0.6 mL/min.
The test system of another data set is HepG2. The note with it: human, 48 h, 100 µM.
The target of another data set is T7, COX-1 (Ovis aries, UniProt P05979).
T7 construct: purchased Abcam (Cambridge, UK)
T7 sequence (P05979 25-600): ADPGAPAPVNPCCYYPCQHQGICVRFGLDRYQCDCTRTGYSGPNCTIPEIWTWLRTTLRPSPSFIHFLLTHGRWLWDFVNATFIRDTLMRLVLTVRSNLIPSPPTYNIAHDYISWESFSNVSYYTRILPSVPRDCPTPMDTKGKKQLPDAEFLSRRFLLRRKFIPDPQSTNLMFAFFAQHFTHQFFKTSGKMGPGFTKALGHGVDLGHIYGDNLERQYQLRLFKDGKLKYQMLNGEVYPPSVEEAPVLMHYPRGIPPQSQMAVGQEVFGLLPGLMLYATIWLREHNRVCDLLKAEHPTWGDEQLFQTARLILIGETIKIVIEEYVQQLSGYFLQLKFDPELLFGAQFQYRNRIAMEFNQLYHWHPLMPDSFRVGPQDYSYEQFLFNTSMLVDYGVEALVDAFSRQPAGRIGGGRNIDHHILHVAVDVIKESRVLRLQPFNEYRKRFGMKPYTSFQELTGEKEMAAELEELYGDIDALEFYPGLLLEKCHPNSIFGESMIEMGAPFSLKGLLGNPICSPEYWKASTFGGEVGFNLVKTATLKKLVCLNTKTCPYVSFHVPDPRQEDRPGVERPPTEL
Kind of data set: Fluorometric COX-1 inhibitor assay. The class given is biochemical, human.

The subject of data set [6] is LasB. Type of data set: in vivo, mouse. Particulars: compared to the vehicle group; 4b 10 mg/kg TID, levofloxacin 25 mg/kg.
The subject of another data set is P. aeruginosa DSM-1117. The data set is described as follows: Neutropenic lung infection model (PD study). The note with it: neutropenic mice, 24 h; 4b 10 mg/kg TID nebulized, levofloxacin 25 mg/kg IP.

T4 sequence (Q02RJ6 198-498): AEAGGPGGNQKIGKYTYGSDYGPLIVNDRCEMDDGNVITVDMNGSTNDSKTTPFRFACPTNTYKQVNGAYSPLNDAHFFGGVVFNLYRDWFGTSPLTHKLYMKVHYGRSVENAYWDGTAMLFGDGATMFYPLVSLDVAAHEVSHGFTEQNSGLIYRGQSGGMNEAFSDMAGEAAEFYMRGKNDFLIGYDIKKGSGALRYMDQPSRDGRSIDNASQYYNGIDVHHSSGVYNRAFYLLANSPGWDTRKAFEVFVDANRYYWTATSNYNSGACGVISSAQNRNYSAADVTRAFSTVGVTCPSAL
T1 sequence (O15379 whole entry): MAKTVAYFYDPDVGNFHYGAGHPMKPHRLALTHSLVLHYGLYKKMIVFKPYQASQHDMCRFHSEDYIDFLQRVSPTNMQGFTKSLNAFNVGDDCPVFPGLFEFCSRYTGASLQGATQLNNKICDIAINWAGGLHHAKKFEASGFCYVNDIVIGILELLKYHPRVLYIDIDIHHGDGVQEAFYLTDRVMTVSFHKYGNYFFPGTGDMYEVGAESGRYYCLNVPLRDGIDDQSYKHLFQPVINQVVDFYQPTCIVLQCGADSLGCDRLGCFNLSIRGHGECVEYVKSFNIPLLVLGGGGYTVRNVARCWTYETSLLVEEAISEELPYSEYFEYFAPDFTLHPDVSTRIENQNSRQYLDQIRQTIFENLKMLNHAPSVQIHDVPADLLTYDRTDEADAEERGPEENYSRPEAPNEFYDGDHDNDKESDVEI
T1 sequence (Q9Y618 395-489 partner limits assumed): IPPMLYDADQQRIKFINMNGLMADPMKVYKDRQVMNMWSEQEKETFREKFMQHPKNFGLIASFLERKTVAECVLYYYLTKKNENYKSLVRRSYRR
Protocol for HEK293: (§1) Culturing of HepG2, A549 and HEK293 cells. The human hepatocellular carcinoma cell line HepG2, the lung adenocarcinoma cell line A549 and Human Embryonic (HEK) 293 cells were cultured in Dulbecco's Modified Eagle Medium (DMEM), containing 10% Fetal Bovine Serum
(§2) (FBS) and 1% penicillin-streptomycin mixture. Cells were maintained according to standard cell
(§3) Cytotoxicity assay. An MTT-based assay was employed to evaluate the viability of HepG2,
(§4) HEK293 and A549 cells after challenge with selected LasB inhibitors and performed as described
Protocol for HepG2: as §1, §2, §3, §4
Protocol for P. aeruginosa DSM-1117: For the therapeutic neutropenic
pneumonia model, female CD-1 mice, 8-weeks-old, (Charles River, Germany) were rendered
neutropenic by administration of 150 mg/kg and 100 mg/kg cyclophosphamide i.p. on day –4 and
–1, respectively. The inoculum was prepared as follows: on day -1 the P. aeruginosa strain DSM-
single colony was inoculated into LB medium (diluted 1:6 in water) containing 0.01% mucin and
incubated at 120 rpm and 37 °C.
washed twice in 0.9 % NaCl-solution. Then they were adjusted to an OD of 10. For infection with
P. aeruginosa an inoculum of 1.2x10^9 cfu/mL was used. At d0 mice were infected by nebulization
using an Aeroneb® nebulizer (Kent Scientific) of 20 µL 1.2x10^9 CFU/ml P. aeruginosa DSM-
To control bacterial burden after nebulization, two animals were used as inoculum control
group. The following groups were used: (1) vehicle control group, (2) levofloxacin group wit h
mg/kg inhaled TID (t= 2, 6 and 10 h) combined with levofloxacin at 25 mg/kg IP QD (t= 2 h p.i.).
After isolation of blood, lung was
removed, weighed, and homogenized in 3 mL 0.9% NaCl. For de termination of CFUs, suspensions
of homogenized organs were serially diluted, plated on agar plates and incubated overnight at 37
°C. CFUs were determined by manual counting.

For `Cc1ccc(NC(=O)C(CC(C)C)C(=O)NO)cc1` (stereo not shown) [Compound 3g], the microsomal CLint at 1 μM in data set [1] was < 5.8 µL/min/mg; in data set [4], 64 ± 10 µL/min/mg. Also, the inhibition at 100 µM against HDAC-3 was < 10%; on MMP-2, 26 ± 2%; on HDAC-8 it was < 10%; on MMP-1 it was 29 ± 3%; at MMP-3, 16 ± 7%; at COX-1, < 10%. The compound also returned a Papp at 300 min in the data set “Calu-3 permeability” of 9.8 ± 2.6 ×10⁻⁶ cm/s. In addition, in the data set with HEK293, the “% growth inhibition HEK293” value was 12 ± 6%. Further, the half-life at 1 μM in the data set “Plasma stability, mouse” is > 2.5 h. Further, the “detection in ELF and lung tissue” value in data set [2] was “not detected”. Moreover, on LasB [3], the “fold more potent compared to the best phosphonate inhibitor” value amounted to 2 fold. Moreover, the “fold improvement of LasB activity compared to thiol hit 1” value on LasB [3] (vs 1) was determined as 30 fold. For the same compound, the logD7.4 in [5] (pH 7.4, chromatographic) is 1.81. For the same compound, the chromatographic logD in data set [5] (pH 7.4, pH 7.4, chromatographic) is > 1.8. In the data set with HepG2, the “% growth inhibition HepG2” value was 26 ± 11%.
Turning to `C[C@H]1COc2c(N3CCN(C)CC3)c(F)cc3c(=O)c(C(=O)O)cn1c23` [levofloxacin, reference compound], in the data set with LasB [6], the “LasB protein levels in blood” value was “clear reduction”. Moreover, in the data set with P. aeruginosa DSM-1117, the “effect on bacterial burden (CFU) in lung” value is “reduced the bacterial burden back to stasis”.

The term microsomal CLint denotes the rate of metabolic loss divided by the concentration. Read a high microsomal CLint as faster metabolism. In general, inhibition refers to the share of the control response that was lost under treatment. The term Papp denotes a coefficient for how fast a substance crosses the barrier. Higher therefore signals ready permeation. The chromatographic logD is lipophilicity estimated from chromatographic retention.
